Laboratory results published in ChEMBL document CHEMBL1123676, “Synthetic and enzyme inhibition studies of pepstatin analogues containing hydroxyethylene and ketomethylene dipeptide isosteres” (J Med Chem, 1987).
Non-standard residues stand in square brackets, D forms with d. Residues, ends and D or L forms follow the SMILES beside them. ξ: configuration not given here. *: point of attachment. Cbz = O=C(OCc1ccccc1)*; ξL = CC(C)CC(N)C(=O)O; ξA = CC(N)C(=O)O

How the values were obtained:
Pepsin A [1] = target: T1, Pepsin A (Sus scrofa, UniProt P00791); assay: Inhibition of porcine pepsin
T1 sequence (P00791 whole entry): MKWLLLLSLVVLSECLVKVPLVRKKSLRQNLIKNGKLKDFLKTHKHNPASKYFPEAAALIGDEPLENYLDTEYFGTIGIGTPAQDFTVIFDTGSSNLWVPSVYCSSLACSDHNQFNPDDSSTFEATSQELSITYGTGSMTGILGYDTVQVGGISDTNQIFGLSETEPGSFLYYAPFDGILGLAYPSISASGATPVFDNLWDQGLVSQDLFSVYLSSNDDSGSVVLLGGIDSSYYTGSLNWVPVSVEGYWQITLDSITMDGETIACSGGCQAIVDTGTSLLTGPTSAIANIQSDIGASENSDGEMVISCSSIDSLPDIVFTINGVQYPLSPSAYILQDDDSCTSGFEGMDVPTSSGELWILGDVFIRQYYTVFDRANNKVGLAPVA

Pepsin A (Sus scrofa) [2] = target: Pepsin A (Sus scrofa) (UniProt P00791); assay: Slow binding inhibition characteristic of the pepstatin-pepsin interaction; - indicates that the binding is not slow.
Chain of Pepsin A (Sus scrofa) (P00791 60-385 limits assumed): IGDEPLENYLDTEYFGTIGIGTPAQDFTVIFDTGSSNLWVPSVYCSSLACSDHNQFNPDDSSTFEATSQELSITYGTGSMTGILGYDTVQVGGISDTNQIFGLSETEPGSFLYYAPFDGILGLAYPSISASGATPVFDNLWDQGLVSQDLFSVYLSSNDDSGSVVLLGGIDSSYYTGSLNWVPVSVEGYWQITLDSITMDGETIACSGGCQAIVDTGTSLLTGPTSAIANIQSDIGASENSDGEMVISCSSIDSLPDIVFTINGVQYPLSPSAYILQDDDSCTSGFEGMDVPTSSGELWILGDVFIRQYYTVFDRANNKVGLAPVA

Pepsin A [3] = target: T1, Pepsin A; assay: Inhibitory activity against porcine pepsin was determined
Pepsin A [4] = target: T1, Pepsin A; assay: Inhibitory activity against porcine pepsin substrate Z-His-Phe-DPhe-oMe was determined
Pepsin A (Sus scrofa) [5] = target: Pepsin A (Sus scrofa) (UniProt P00791); assay: The kinetic constant (Kcat)of porcine pepsin substrate Z-His-Phe-Phe-oMe was determined
[6] = Ratio of kinetic constant kcat / KM of porcine pepsin
Pepsin A (Sus scrofa) [7] = target: Pepsin A (Sus scrofa) (UniProt P00791); assay: Slow binding inhibition characteristic of the pepstatin-pepsin interaction; indicates that the binding is not slow.
Pepsin A (Sus scrofa) [8] = target: Pepsin A (Sus scrofa) (UniProt P00791); assay: The kinetic constant (Kcat)of porcine pepsin substrate Z-His-Phe-Gly-oMe was determined
Pepsin A (Sus scrofa) [9] = target: Pepsin A (Sus scrofa) (UniProt P00791)
Pepsin A (Sus scrofa) [10] = target: Pepsin A (Sus scrofa) (UniProt P00791); assay: The kinetic constant (Kcat)of porcine pepsin substrate Z-His-Phe-Leu-oMe was determined
Pepsin A (Sus scrofa) [11] = target: Pepsin A (Sus scrofa) (UniProt P00791); assay: The kinetic constant (Kcat)of porcine pepsin substrate Z-His-Phe-Ala-oMe was determined
Pepsin A (Sus scrofa) [12] = target: Pepsin A (Sus scrofa) (UniProt P00791); remark: listed apart in the source

Q: For CC(C)CCNC(=O)C(C)NC(=O)CC(=O)C(CC(C)C)NC(=O)C(NC(=O)CC(C)C)C(C)C (stereo not given), which Ki (Pepsin A [1]) is on record?
A: 56 nM

Q: What about the Slow binding (Pepsin A (Sus scrofa) [2]) of the same compound?
A: binding is not slow

Q: Which Ki (Pepsin A [3]) does the source give for CC(C)CCNC(=O)C(C)NC(=O)C[C@H](O)C(CC(C)C)NC(=O)C(NC(=O)CC(C)C)C(C)C (stereo not given in full) here?
A: 3 nM

Q: Which Ki (Pepsin A [1]) does the source give for CC(C)CCNC(=O)C(C)NC(=O)C(C)C[C@H](O)[C@H](CC(C)C)NC(=O)C(NC(=O)CC(C)C)C(C)C (stereo not given in full) here?
A: 3 nM

Q: Which Ki (Pepsin A [4]) does the source give for COC(=O)[C@@H](Cc1ccccc1)NC(=O)[C@H](Cc1ccccc1)NC(=O)[C@H](Cc1c[nH]cn1)NC(=O)OCc1ccccc1 here?
A: 280000 nM

Q: For COC(=O)C(Cc1ccccc1)NC(=O)[C@H](Cc1ccccc1)NC(=O)[C@H](Cc1c[nH]cn1)NC(=O)OCc1ccccc1 (stereo not given in full), which k cat (Pepsin A (Sus scrofa) [5]) is on record?
A: 170 ms-1

Q: What about the Ratio [6] of the same compound?
A: 520

Q: Which Ki (Pepsin A [1]) does the source give for CC(C)CCNC(=O)C(C)NC(=O)[C@H](Cc1ccccc1)C[C@H](O)[C@H](CC(C)C)NC(=O)C(NC(=O)CC(C)C)C(C)C (stereo not given in full) here?
A: 140 nM

Q: What about the Slow binding (Pepsin A (Sus scrofa) [7]) of the same compound?
A: indicates that the binding is not slow

Q: Which Ki (Pepsin A [1]) does the source give for CC(C)CCNC(=O)C(C)NC(=O)C(CC(=O)[C@H](CC(C)C)NC(=O)C(NC(=O)CC(C)C)C(C)C)Cc1ccccc1 (stereo not given in full) here?
A: 72 nM

Q: What about the Slow binding (Pepsin A (Sus scrofa) [2]) of the same compound?
A: binding is not slow

Q: With COC(=O)CNC(=O)[C@H](Cc1ccccc1)NC(=O)[C@H](Cc1c[nH]cn1)NC(=O)OCc1ccccc1 (Cbz-His-Phe-Gly-OMe) as the compound, how does the k cat (Pepsin A (Sus scrofa) [8]) read?
A: 2.1 ms-1

Q: And the Ratio [6]?
A: 1.3

Q: Which Ki (Pepsin A [1]) does the source give for CC(C)CCNC(=O)C(C)NC(=O)C(Cc1ccccc1)C[C@H](O)[C@H](CC(C)C)NC(=O)C(NC(=O)CC(C)C)C(C)C (stereo not given in full) here?
A: 2.5 nM

Q: What does the source list for CC(C)CCNC(=O)C(C)NC(=O)CCC(=O)[C@H](CC(C)C)NC(=O)C(NC(=O)CC(C)C)C(C)C (stereo not given in full)?
A: Ki (Pepsin A [1]): 2140 nM; Slow binding (Pepsin A (Sus scrofa) [2]): binding is not slow

Q: For CC(C)CCNC(=O)C(C)NC(=O)[C@@H](CC(=O)[C@H](CC(C)C)NC(=O)C(NC(=O)CC(C)C)C(C)C)Cc1ccccc1 (stereo not given in full), which Ki (Pepsin A [1]) is on record?
A: 850 nM

Q: And the Slow binding (Pepsin A (Sus scrofa) [2])?
A: binding is not slow

Q: Which Slow binding (Pepsin A (Sus scrofa) [9]) does the source give for CC(C)CCNC(=O)C(C)NC(=O)CC[C@H](O)[C@H](CC(C)C)NC(=O)C(NC(=O)CC(C)C)C(C)C (stereo not given in full) here?
A: binding is not slow

Q: What about the Ki (Pepsin A [1]) of the same compound?
A: 50 nM

Q: What does the source list for COC(=O)C(CC(C)C)NC(=O)[C@H](Cc1ccccc1)NC(=O)[C@H](Cc1c[nH]cn1)NC(=O)OCc1ccccc1 (stereo partly drawn) (Cbz-His-Phe-[ξL]-OMe)?
A: Ratio [6]: 10; k cat (Pepsin A (Sus scrofa) [10]): 5.2 ms-1

Q: Which Ratio [6] does the source give for COC(=O)C(C)NC(=O)[C@H](Cc1ccccc1)NC(=O)[C@H](Cc1c[nH]cn1)NC(=O)OCc1ccccc1 (stereo partly drawn) (Cbz-His-Phe-[ξA]-OMe) here?
A: 2.1

Q: What about the k cat (Pepsin A (Sus scrofa) [11]) of the same compound?
A: 3.7 ms-1

Q: With CC(C)CCNC(=O)CNC(=O)C[C@H](O)C(CC(C)C)NC(=O)C(NC(=O)CC(C)C)C(C)C (stereo not given in full) as the compound, how does the Ki (Pepsin A [1]) read?
A: 56 nM

Q: And the Slow binding (Pepsin A (Sus scrofa) [2])?
A: binding is not slow

Q: Which results are given for CC(C)CCNC(=O)C(C)C[C@H](O)[C@H](CC(C)C)NC(=O)C(NC(=O)CC(C)C)C(C)C (stereo not given in full)?
A: Ki (Pepsin A [1]): 27 nM; Slow binding (Pepsin A (Sus scrofa) [12]): binding is not slow

Q: Which results are given for CC(C)CCNC(=O)C(C)NC(=O)C(C)CC(=O)[C@H](CC(C)C)NC(=O)C(NC(=O)CC(C)C)C(C)C (stereo not given in full)?
A: Ki (Pepsin A [1]): 27 nM; Slow binding (Pepsin A (Sus scrofa) [2]): binding is not slow
